Experimental data taken from publication PMC7574915 (Science Translational Medicine, 2020).

Test system: not listed separately
Test: in vitro
Conditions: not given
For `CC(C)C[C@H](NC(=O)OC1CCCCC1)C(=O)N[C@@H](C[C@@H]1CCNC1=O)C(O)S(=O)(=O)O` (stereo partly shown) [Compound 7a], the CC50 was > 100000 nM.
With `CCCC1CCC(OC(=O)N[C@@H](CC(C)C)C(=O)N[C@@H](C[C@@H]2CCNC2=O)C(O)S(=O)(=O)O)CC1` (stereo partly shown) [Compound 7c] the CC50 was > 100000 nM.
`CCCCC1CCC(OC(=O)N[C@@H](CC(C)C)C(=O)N[C@@H](C[C@@H]2CCNC2=O)C(O)S(=O)(=O)O)CC1` (stereo partly shown) [Compound 7e] showed a CC50 of 59100 ± 3500 nM.
With `CC(C)C[C@H](NC(=O)OC1CCC(F)(F)CC1)C(=O)N[C@@H](C[C@@H]1CCNC1=O)C(O)S(=O)(=O)O` (stereo partly shown) [Compound 7h] the CC50 was > 100000 nM.
For `CC(C)C[C@H](NC(=O)OCC1CCC(F)(F)CC1)C(=O)N[C@@H](C[C@@H]1CCNC1=O)C(O)S(=O)(=O)O` (stereo partly shown) [Compound 7j], the CC50 was > 100000 nM.
For `CC(C)C[C@H](NC(=O)OCc1ccccc1)C(=O)N[C@@H](C[C@@H]1CCNC1=O)C(O)S(=O)(=O)O` (stereo partly shown) [GC376, reference compound], the CC50 was > 100000 nM.

Test system: feline infectious peritonitis (FIP)
Test: not given
Conditions: in vivo; cited from earlier work
In the case of `CC(C)C[C@H](NC(=O)OCc1ccccc1)C(=O)N[C@@H](C[C@@H]1CCNC1=O)C(O)S(=O)(=O)O` (stereo partly shown) [GC376, reference compound], the “progression of FIP” value is listed as “reversed the progression of FIP and resulted in clinical remission”.

Test system: MERS-CoV
Test: microbe, parasite or virus in culture
Assay type: cell-based
Conditions: not given
In the case of `CC(C)C[C@H](NC(=O)OC1CCCCC1)C(=O)N[C@@H](C[C@@H]1CCNC1=O)C(O)S(=O)(=O)O` (stereo partly shown) [Compound 7a], the “EC50 in cell culture, MERS-CoV” value is reported as “submicromolar”.
In the case of `CCCCC1CCC(OC(=O)N[C@@H](CC(C)C)C(=O)N[C@@H](C[C@@H]2CCNC2=O)C(O)S(=O)(=O)O)CC1` (stereo partly shown) [Compound 7e], the “EC50 in cell culture, MERS-CoV” value is reported as “submicromolar”.
With `CC(C)C[C@H](NC(=O)OC1CCC(F)(F)CC1)C(=O)N[C@@H](C[C@@H]1CCNC1=O)C(O)S(=O)(=O)O` (stereo partly shown) [Compound 7h] the “EC50 in cell culture, MERS-CoV” value was “submicromolar”.

Same assay, conditions: Middle East respiratory syndrome-related coronavirus, Huh-7, read-out: EC50 in cell culture, MERS-CoV
In the case of `CC(C)C[C@H](NC(=O)OC1CCCCC1)C(=O)N[C@@H](C[C@@H]1CCNC1=O)C(O)S(=O)(=O)O` (stereo partly shown) [Compound 7a], the EC50 is reported as 80 ± 100 nM.
`CCCCC1CCC(OC(=O)N[C@@H](CC(C)C)C(=O)N[C@@H](C[C@@H]2CCNC2=O)C(O)S(=O)(=O)O)CC1` (stereo partly shown) [Compound 7e] showed an EC50 of 530 ± 200 nM.
In the case of `CC(C)C[C@H](NC(=O)OC1CCC(F)(F)CC1)C(=O)N[C@@H](C[C@@H]1CCNC1=O)C(O)S(=O)(=O)O` (stereo partly shown) [Compound 7h], the EC50 is reported as 210 ± 100 nM.
With `CC(C)C[C@H](NC(=O)OCc1ccccc1)C(=O)N[C@@H](C[C@@H]1CCNC1=O)C(O)S(=O)(=O)O` (stereo partly shown) [GC376, reference compound] the EC50 was ~1000 nM.

Same assay, conditions: read-out: EC50 in cell culture, MERS-CoV
`CC(C)C[C@H](NC(=O)OCc1ccccc1)C(=O)N[C@@H](C[C@@H]1CCNC1=O)C(O)S(=O)(=O)O` (stereo partly shown) [GC376, reference compound] gave an EC50 of 900 ± 200 nM.

Test system: FIPV
Test: microbe, parasite or virus in culture
Assay type: cell-based, feline infectious peritonitis virus
Conditions: Alphacoronavirus 1, CRFK, 24 h, read-out: EC50 in cell culture, FIPV
With `CC(C)C[C@H](NC(=O)OC1CCCCC1)C(=O)N[C@@H](C[C@@H]1CCNC1=O)C(O)S(=O)(=O)O` (stereo partly shown) [Compound 7a] the EC50 was 70 ± 20 nM.
For `CCCC1CCC(OC(=O)N[C@@H](CC(C)C)C(=O)N[C@@H](C[C@@H]2CCNC2=O)C(O)S(=O)(=O)O)CC1` (stereo partly shown) [Compound 7c], the EC50 was 170 ± 30 nM.
`CCCCC1CCC(OC(=O)N[C@@H](CC(C)C)C(=O)N[C@@H](C[C@@H]2CCNC2=O)C(O)S(=O)(=O)O)CC1` (stereo partly shown) [Compound 7e] gave an EC50 of 170 ± 20 nM.
`CC(C)C[C@H](NC(=O)OC1CCC(F)(F)CC1)C(=O)N[C@@H](C[C@@H]1CCNC1=O)C(O)S(=O)(=O)O` (stereo partly shown) [Compound 7h] gave an EC50 of 120 ± 60 nM.
Work on `CC(C)C[C@H](NC(=O)OCC1CCC(F)(F)CC1)C(=O)N[C@@H](C[C@@H]1CCNC1=O)C(O)S(=O)(=O)O` (stereo partly shown) [Compound 7j] yielded an EC50 of 70 ± 10 nM.

Test system: MHV
Test: microbe, parasite or virus in culture
Assay type: cell-based, mouse hepatitis virus
Conditions: Murine coronavirus, L929, 24 h, read-out: EC50 in cell culture, MHV
Work on `CC(C)C[C@H](NC(=O)OC1CCCCC1)C(=O)N[C@@H](C[C@@H]1CCNC1=O)C(O)S(=O)(=O)O` (stereo partly shown) [Compound 7a] yielded an EC50 of 80 ± 30 nM.
Compound `CCCC1CCC(OC(=O)N[C@@H](CC(C)C)C(=O)N[C@@H](C[C@@H]2CCNC2=O)C(O)S(=O)(=O)O)CC1` (stereo partly shown) [Compound 7c] has an EC50 of 160 ± 80 nM.
`CCCCC1CCC(OC(=O)N[C@@H](CC(C)C)C(=O)N[C@@H](C[C@@H]2CCNC2=O)C(O)S(=O)(=O)O)CC1` (stereo partly shown) [Compound 7e] showed an EC50 of 130 ± 20 nM.
For `CC(C)C[C@H](NC(=O)OC1CCC(F)(F)CC1)C(=O)N[C@@H](C[C@@H]1CCNC1=O)C(O)S(=O)(=O)O` (stereo partly shown) [Compound 7h], the EC50 was 110 ± 80 nM.
Work on `CC(C)C[C@H](NC(=O)OCC1CCC(F)(F)CC1)C(=O)N[C@@H](C[C@@H]1CCNC1=O)C(O)S(=O)(=O)O` (stereo partly shown) [Compound 7j] yielded an EC50 of 160 ± 50 nM.

Biological target: 3CLpro of SARS-CoV (Severe acute respiratory syndrome coronavirus, UniProt P0C6X7)
Test: biochemical
Conditions: not given
For `CC(C)C[C@H](NC(=O)OC1CCCCC1)C(=O)N[C@@H](C[C@@H]1CCNC1=O)C(O)S(=O)(=O)O` (stereo partly shown) [Compound 7a], the IC50 was 3800 ± 400 nM.
`CCCCC1CCC(OC(=O)N[C@@H](CC(C)C)C(=O)N[C@@H](C[C@@H]2CCNC2=O)C(O)S(=O)(=O)O)CC1` (stereo partly shown) [Compound 7e] gave an IC50 of 1000 ± 100 nM.
For `CC(C)C[C@H](NC(=O)OC1CCC(F)(F)CC1)C(=O)N[C@@H](C[C@@H]1CCNC1=O)C(O)S(=O)(=O)O` (stereo partly shown) [Compound 7h], the IC50 was 2200 ± 100 nM.
In the case of `CC(C)C[C@H](NC(=O)OCC1CCC(F)(F)CC1)C(=O)N[C@@H](C[C@@H]1CCNC1=O)C(O)S(=O)(=O)O` (stereo partly shown) [Compound 7j], the IC50 is reported as 1100 ± 100 nM.

Biological target: T1, 3CLpro of SARS-CoV-2 (Severe acute respiratory syndrome coronavirus 2, UniProt P0DTD1)
T1 construct: His6 (N); made in house; host or cells: E. coli (inferred from the pET-28a(+) vector)
Test: biochemical
Conditions: not given
Compound `CC(C)C[C@H](NC(=O)OC1CCCCC1)C(=O)N[C@@H](C[C@@H]1CCNC1=O)C(O)S(=O)(=O)O` (stereo partly shown) [Compound 7a] has an IC50 of 650 ± 60 nM.
For `CCCC1CCC(OC(=O)N[C@@H](CC(C)C)C(=O)N[C@@H](C[C@@H]2CCNC2=O)C(O)S(=O)(=O)O)CC1` (stereo partly shown) [Compound 7c], the IC50 was 230 ± 50 nM.
For `CCCCC1CCC(OC(=O)N[C@@H](CC(C)C)C(=O)N[C@@H](C[C@@H]2CCNC2=O)C(O)S(=O)(=O)O)CC1` (stereo partly shown) [Compound 7e], the IC50 was 200 ± 60 nM.
For `CC(C)C[C@H](NC(=O)OC1CCC(F)(F)CC1)C(=O)N[C@@H](C[C@@H]1CCNC1=O)C(O)S(=O)(=O)O` (stereo partly shown) [Compound 7h], the IC50 was 410 ± 100 nM.
For `CC(C)C[C@H](NC(=O)OCC1CCC(F)(F)CC1)C(=O)N[C@@H](C[C@@H]1CCNC1=O)C(O)S(=O)(=O)O` (stereo partly shown) [Compound 7j], the IC50 was 450 ± 100 nM.

Biological target: 3CLpro of MERS-CoV (Middle East respiratory syndrome-related coronavirus, UniProt K9N7C7)
Sequence (K9N7C7 3248-3553 limits assumed): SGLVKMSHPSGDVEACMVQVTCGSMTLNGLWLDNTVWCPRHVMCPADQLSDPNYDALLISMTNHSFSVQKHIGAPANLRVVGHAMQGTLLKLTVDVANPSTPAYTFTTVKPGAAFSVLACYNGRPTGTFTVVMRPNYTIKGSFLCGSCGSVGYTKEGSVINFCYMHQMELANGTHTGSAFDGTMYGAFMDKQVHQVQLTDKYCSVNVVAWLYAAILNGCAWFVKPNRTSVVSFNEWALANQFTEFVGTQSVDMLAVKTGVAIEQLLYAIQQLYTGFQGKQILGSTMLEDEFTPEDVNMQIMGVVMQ
Test: biochemical
Conditions: not given
`CC(C)C[C@H](NC(=O)OC1CCCCC1)C(=O)N[C@@H](C[C@@H]1CCNC1=O)C(O)S(=O)(=O)O` (stereo partly shown) [Compound 7a] gave an IC50 of 150 ± 10 nM.
For `CCCC1CCC(OC(=O)N[C@@H](CC(C)C)C(=O)N[C@@H](C[C@@H]2CCNC2=O)C(O)S(=O)(=O)O)CC1` (stereo partly shown) [Compound 7c], the IC50 was 100 ± 40 nM.
In the case of `CCCCC1CCC(OC(=O)N[C@@H](CC(C)C)C(=O)N[C@@H](C[C@@H]2CCNC2=O)C(O)S(=O)(=O)O)CC1` (stereo partly shown) [Compound 7e], the IC50 is reported as 130 ± 60 nM.
`CC(C)C[C@H](NC(=O)OC1CCC(F)(F)CC1)C(=O)N[C@@H](C[C@@H]1CCNC1=O)C(O)S(=O)(=O)O` (stereo partly shown) [Compound 7h] showed an IC50 of 80 ± 10 nM.
With `CC(C)C[C@H](NC(=O)OCC1CCC(F)(F)CC1)C(=O)N[C@@H](C[C@@H]1CCNC1=O)C(O)S(=O)(=O)O` (stereo partly shown) [Compound 7j] the IC50 was 100 ± 10 nM.

Test system: FIPV
Test: not given
Conditions: read-out: EC50 in cell culture, FIPV; cited from earlier work
For `CC(C)C[C@H](NC(=O)OCc1ccccc1)C(=O)N[C@@H](C[C@@H]1CCNC1=O)C(O)S(=O)(=O)O` (stereo partly shown) [GC376, reference compound], the EC50 is given as 40 nM.
